According to ChEMBL document CHEMBL3885881, “DrugMatrix”:

Organism: Rattus norvegicus
Assay: DrugMatrix - Regimen: Daily Repeat
Type: toxicity, organism-based, Sprague-Dawley
Parameters: regimen Daily Repeat, gender Male, age 6-8 weeks
Settings: in vivo, ip, route intraperitoneal, vehicle 100 % SALINE; for ALANINE AMINOTRANSFERASE / ALBUMIN / ALKALINE PHOSPHATASE / ASPARTATE AMINOTRANSFERASE / BLOOD UREA NITROGEN / CARBON DIOXIDE / CHLORIDE / CHOLESTEROL / CREATINE PHOSPHOKINASE / CREATININE / GLUCOSE / LACTATE DEHYDROGENASE / LIPASE / PHOSPHORUS / POTASSIUM / SODIUM / TOTAL BILIRUBIN / TOTAL PROTEIN / URIC ACID: tissue Plasma; for ABSOLUTE BASOPHIL / ABSOLUTE EOSINOPHIL / ABSOLUTE LYMPHOCYTE / ABSOLUTE MONOCYTE / ABSOLUTE SEGMENTED NEUTROPHIL / BASOPHIL / EOSINOPHIL / ERYTHROCYTE COUNT / HEMATOCRIT / HEMOGLOBIN / LEUKOCYTE COUNT / LYMPHOCYTE / MEAN CORPUSCULAR HEMOGLOBIN / MEAN CORPUSCULAR HEMOGLOBIN CONCENTRATION / MEAN CORPUSCULAR VOLUME / MONOCYTE / NEUTROPHIL / NUCLEATED RED BLOOD CELLS / PLATELET COUNT: tissue Blood
[1] = 16 mg/kg, […], dose level Low, time 7 day
[2] = 25 mg/kg, 72 h, dose level M1, time 3 day
[3] = 25 mg/kg, […], dose level M1, time 7 day
[4] = 32 mg/kg, 72 h, dose level High, time 3 day
[5] = 32 mg/kg, 120 h, dose level High, time 5 day

## C=CCO [ALLYL ALCOHOL]
[1]
  ALANINE AMINOTRANSFERASE: 80.83 u/L
  ALBUMIN: 4.13 G/DL
  ALKALINE PHOSPHATASE: 183 u/L
  ASPARTATE AMINOTRANSFERASE: 104.33 u/L
  BLOOD UREA NITROGEN: 16.67 mg/dL
  CARBON DIOXIDE: 32.17 mmol/L
  CHLORIDE: 100.67 MEQ/L
  CHOLESTEROL: 73.5 mg/dL
  CREATINE PHOSPHOKINASE: 256 u/L
  CREATININE: 0.27 mg/dL
  GLUCOSE: 141 mg/dL
  LACTATE DEHYDROGENASE: 96.17 u/L
  LIPASE: 10.5 u/L
  PHOSPHORUS: 10.28 mg/dL
  POTASSIUM: 5.47 MEQ/L
  SODIUM: 142.65 MEQ/L
  TOTAL BILIRUBIN: 0.12 mg/dL
  TOTAL PROTEIN: 6.32 G/DL
  URIC ACID: 0.65 mg/dL
[2]
  ABSOLUTE BASOPHIL: 0 CELLS/uL
  ABSOLUTE EOSINOPHIL: 43.33 CELLS/uL
  ABSOLUTE LYMPHOCYTE: 12346.17 CELLS/uL
  ABSOLUTE MONOCYTE: 299.67 CELLS/uL
  ABSOLUTE SEGMENTED NEUTROPHIL: 1244.17 CELLS/uL
  BASOPHIL: 0%
  EOSINOPHIL: 0.33%
  ERYTHROCYTE COUNT: 5.36 x10E6/uL
  HEMATOCRIT: 34.17%
  HEMOGLOBIN: 13.52 G/DL
  LEUKOCYTE COUNT: 13.93 x10E3/uL
  LYMPHOCYTE: 88.17%
  MEAN CORPUSCULAR HEMOGLOBIN: 25.25 pg
  MEAN CORPUSCULAR HEMOGLOBIN CONCENTRATION: 39.62 G/DL
  MEAN CORPUSCULAR VOLUME: 63.8 fL
  MONOCYTE: 2.17%
  NEUTROPHIL: 9.33%
  NUCLEATED RED BLOOD CELLS: 0 /100WBC
  PLATELET COUNT: 1124.67 x10E3/uL
  ALANINE AMINOTRANSFERASE: 46.67 u/L
  ALBUMIN: 4 G/DL
  ALKALINE PHOSPHATASE: 230.83 u/L
  ASPARTATE AMINOTRANSFERASE: 67.33 u/L
  BLOOD UREA NITROGEN: 11.17 mg/dL
  CARBON DIOXIDE: 32.67 mmol/L
  CHLORIDE: 102 MEQ/L
  CHOLESTEROL: 77.17 mg/dL
  CREATINE PHOSPHOKINASE: 229.5 u/L
  CREATININE: 0.39 mg/dL
  GLUCOSE: 137 mg/dL
  LACTATE DEHYDROGENASE: 101.67 u/L
  LIPASE: 8.33 u/L
  PHOSPHORUS: 9.72 mg/dL
  POTASSIUM: 5.84 MEQ/L
  SODIUM: 141.88 MEQ/L
  TOTAL BILIRUBIN: 0.17 mg/dL
  TOTAL PROTEIN: 6.07 G/DL
  URIC ACID: 1.12 mg/dL
[3]
  ABSOLUTE BASOPHIL: 0 CELLS/uL
  ABSOLUTE EOSINOPHIL: 65.67 CELLS/uL
  ABSOLUTE LYMPHOCYTE: 7275.5 CELLS/uL
  ABSOLUTE MONOCYTE: 150.67 CELLS/uL
  ABSOLUTE SEGMENTED NEUTROPHIL: 874.83 CELLS/uL
  BASOPHIL: 0%
  EOSINOPHIL: 0.67%
  ERYTHROCYTE COUNT: 5.49 x10E6/uL
  HEMATOCRIT: 34.07%
  HEMOGLOBIN: 13.33 G/DL
  LEUKOCYTE COUNT: 8.37 x10E3/uL
  LYMPHOCYTE: 87.67%
  MEAN CORPUSCULAR HEMOGLOBIN: 24.3 pg
  MEAN CORPUSCULAR HEMOGLOBIN CONCENTRATION: 39.13 G/DL
  MEAN CORPUSCULAR VOLUME: 62.12 fL
  MONOCYTE: 1.83%
  NEUTROPHIL: 9.83%
  NUCLEATED RED BLOOD CELLS: 0 /100WBC
  PLATELET COUNT: 1389.83 x10E3/uL
  ALANINE AMINOTRANSFERASE: 80.83 u/L
  ALBUMIN: 4.2 G/DL
  ALKALINE PHOSPHATASE: 232.83 u/L
  ASPARTATE AMINOTRANSFERASE: 88.17 u/L
  BLOOD UREA NITROGEN: 15 mg/dL
  CARBON DIOXIDE: 31.33 mmol/L
  CHLORIDE: 101 MEQ/L
  CHOLESTEROL: 66.5 mg/dL
  CREATINE PHOSPHOKINASE: 274.5 u/L
  CREATININE: 0.28 mg/dL
  GLUCOSE: 136.67 mg/dL
  LACTATE DEHYDROGENASE: 97 u/L
  LIPASE: 10.5 u/L
  PHOSPHORUS: 9.85 mg/dL
  POTASSIUM: 5.63 MEQ/L
  SODIUM: 144.45 MEQ/L
  TOTAL BILIRUBIN: 0.1 mg/dL
  TOTAL PROTEIN: 6.35 G/DL
  URIC ACID: 0.85 mg/dL
[4]
  ABSOLUTE BASOPHIL: 0 CELLS/uL
  ABSOLUTE EOSINOPHIL: 16 CELLS/uL
  ABSOLUTE LYMPHOCYTE: 7549.2 CELLS/uL
  ABSOLUTE MONOCYTE: 147.6 CELLS/uL
  ABSOLUTE SEGMENTED NEUTROPHIL: 1267.2 CELLS/uL
  BASOPHIL: 0%
  EOSINOPHIL: 0.2%
  ERYTHROCYTE COUNT: 5.74 x10E6/uL
  HEMATOCRIT: 34.96%
  HEMOGLOBIN: 13.16 G/DL
  LEUKOCYTE COUNT: 8.98 x10E3/uL
  LYMPHOCYTE: 84%
  MEAN CORPUSCULAR HEMOGLOBIN: 22.98 pg
  MEAN CORPUSCULAR HEMOGLOBIN CONCENTRATION: 37.66 G/DL
  MEAN CORPUSCULAR VOLUME: 61.06 fL
  MONOCYTE: 1.6%
  NEUTROPHIL: 14.2%
  NUCLEATED RED BLOOD CELLS: 0 /100WBC
  PLATELET COUNT: 945 x10E3/uL
  ALANINE AMINOTRANSFERASE: 456.4 u/L
  ALBUMIN: 3.86 G/DL
  ALKALINE PHOSPHATASE: 444.6 u/L
  ASPARTATE AMINOTRANSFERASE: 939.2 u/L
  BLOOD UREA NITROGEN: 15.6 mg/dL
  CARBON DIOXIDE: 28.24 mmol/L
  CHLORIDE: 98.33 MEQ/L
  CHOLESTEROL: 70.6 mg/dL
  CREATINE PHOSPHOKINASE: 527.8 u/L
  CREATININE: 0.2 mg/dL
  GLUCOSE: 138.2 mg/dL
  LACTATE DEHYDROGENASE: 186.6 u/L
  LIPASE: 9.25 u/L
  PHOSPHORUS: 9.34 mg/dL
  POTASSIUM: 5.07 MEQ/L
  SODIUM: 143.03 MEQ/L
  TOTAL BILIRUBIN: 0.2 mg/dL
  TOTAL PROTEIN: 5.94 G/DL
  URIC ACID: 0.58 mg/dL
[5]
  ABSOLUTE BASOPHIL: 0 CELLS/uL
  ABSOLUTE EOSINOPHIL: 0 CELLS/uL
  ABSOLUTE LYMPHOCYTE: 8954.4 CELLS/uL
  ABSOLUTE MONOCYTE: 236 CELLS/uL
  ABSOLUTE SEGMENTED NEUTROPHIL: 1769.6 CELLS/uL
  BASOPHIL: 0%
  EOSINOPHIL: 0%
  ERYTHROCYTE COUNT: 5.51 x10E6/uL
  HEMATOCRIT: 33.82%
  HEMOGLOBIN: 12.86 G/DL
  LEUKOCYTE COUNT: 10.96 x10E3/uL
  LYMPHOCYTE: 81.4%
  MEAN CORPUSCULAR HEMOGLOBIN: 23.36 pg
  MEAN CORPUSCULAR HEMOGLOBIN CONCENTRATION: 38.08 G/DL
  MEAN CORPUSCULAR VOLUME: 61.42 fL
  MONOCYTE: 2.2%
  NEUTROPHIL: 16.4%
  NUCLEATED RED BLOOD CELLS: 0 /100WBC
  PLATELET COUNT: 1673 x10E3/uL
  ALANINE AMINOTRANSFERASE: 57.8 u/L
  ALBUMIN: 4.32 G/DL
  ALKALINE PHOSPHATASE: 372.6 u/L
  ASPARTATE AMINOTRANSFERASE: 80.8 u/L
  BLOOD UREA NITROGEN: 12.6 mg/dL
  CARBON DIOXIDE: 32.4 mmol/L
  CHLORIDE: 102 MEQ/L
  CHOLESTEROL: 79.8 mg/dL
  CREATINE PHOSPHOKINASE: 211.6 u/L
  CREATININE: 0.16 mg/dL
  GLUCOSE: 162.6 mg/dL
  LACTATE DEHYDROGENASE: 154.6 u/L
  LIPASE: 9.6 u/L
  PHOSPHORUS: 9.92 mg/dL
  POTASSIUM: 5.73 MEQ/L
  SODIUM: 143.6 MEQ/L
  TOTAL BILIRUBIN: 0.22 mg/dL
  TOTAL PROTEIN: 6.56 G/DL
  URIC ACID: 0.94 mg/dL
